# Measured values: patent publication US20030073618A1, “Compounds comprising disulfide-containing peptides and nitrogenous bases, and medical uses thereof” (priority 2001, published 2003)
# Read-outs that look alike come from different tables or passages of the source. Marks after values point to notes of the source that are not given here.
# Experiments:
# [1] = tested on: hepatitis B virus (HBV); assay: Efficacy study in chronic viral hepatitis B, 62 patients (Tables 47-49); format: in vivo, human; details: month 1 (after treatment)
# From the text: State of patient upon completion of treatment.
# [2] = tested on: hepatitis B virus (HBV); assay: as above; format: in vivo, human
# [3] = tested on: ATP-ase/helicase; assay: ATP-ase/helicase activity in lysate of donor lymphocyte nuclei
# [4] = tested on: ATP-ase/helicase (NS3 of hepatitis C virus)
# [5] = tested on: white rats with DMNA-induced liver cirrhosis; assay: Experimental dimethylnitrosamine (DMNA)-induced liver cirrhosis in rats; format: in vivo
# Method: The method of Jezequel, A. M. et al. was used to induce liver cirrhosis in the rats. (Dimethylnitrosamine-induced cirrhosis. Evidence for an immunological mechanism. J. […] DMNA was dissolved by normal saline. To obtain considerable cirrhosis 4 such injection cycles were sufficient. For morphologic examination after narcotized euthanasia samples of liver tissue from central and right side lobes were taken. The liver samples were fixated by mixture of formalin, alcohol and acetic acid. […] The van-Gison stained samples where collagen fibers had red color were used for the study. […] By number of pixels forming the selected objects a relative square occupied by developed collagen (connective tissue) in the liver tissue was calculated. The measurement results were statistically processed. The difference significance between mean samples using the Student criterion with significance level of p=0.05. The morphological alterations were assessed on the samples with blind marking reducing risk of aggravation of the study results. The pathologic process and agent efficacy were assessed by clinical signs (weight, appearance, ascites, motional activity, death) as well as morphologic ones after animal necropsy with following morphologic liver sample examination. After development of pathologic process, i.e. in 4 weeks after the DMNA introduction onset, all animals were randomized in 4 groups of 12 animals in each. […] The agents were introduced every other day intramuscularly, in femur muscle.
# [6] = tested on: hepatitis C virus (HCV); assay: Efficacy study in chronic viral hepatitis C, 74 patients (Tables 54-55)
# [7] = month 2 (1 month after treatment)
# [8] = month 4 (3 months after treatment)
# [9] = 100 μg/ml, 100 pg M13 phage DNA
# [10] = 100 μg/ml, 200 pg M13 phage DNA
# [11] = compared with GSSG-I and GSSG-IMP
# [12] = 100 μg/ml, 500 pg M13 phage DNA
# [13] = 100 μg/ml, 800 pg M13 phage DNA
structure (smiles),measurement,setting,value
CC(=O)OCC(CCn1cnc2cnc(N)nc21)COC(C)=O [Famvir],ALT in Chronic HBV Infection,[1],**70.2 ± 9.1 U/L
same,HbsAg in Chronic HBV Infection,[1],**150.5 ± 10.43 ng/mL
same,PCR (%) in Chronic HBV Infection,[1],**50.0* %
same,ALT in Chronic HBV Infection,[2]; Baseline (before treatment),165.7 ± 13.8 U/L
same,HbsAg in Chronic HBV Infection,[2]; Baseline (before treatment),157.8 ± 8.84 ng/mL
same,PCR (%) in Chronic HBV Infection,[2]; Baseline (before treatment),100%
same,ALT in Chronic HBV Infection,[2]; [7],**75.9 ± 9.6 U/L
same,HbsAg in Chronic HBV Infection,[2]; [7],**153.5 ± 10.14 ng/mL
same,PCR (%) in Chronic HBV Infection,[2]; [7],**60.0%
same,ALT in Chronic HBV Infection,[2]; [8],**77.9 ± 10.2 U/L
same,HbsAg in Chronic HBV Infection,[2]; [8],**132.5 ± 43.76 ng/mL
same,PCR (%) in Chronic HBV Infection,[2]; [8],**20.0%
N[C@@H](CCC(=O)N[C@@H](CSSC[C@H](NC(=O)CC[C@H](NP(=O)(O)OC[C@H]1O[C@@H](n2ccc(=O)[nH]c2=O)[C@H](O)[C@@H]1O)C(=O)O)C(=O)NCC(=O)[O-])C(=O)NCC(=O)[O-])C(=O)O.[Na+].[Na+] [GSSG-UMP],"Radioactive fraction, high-molecular","[3]; 10 μg/ml, 5 pg M13 phage DNA",16 ± 1/
same,"Radioactive fraction, low-molecular","[3]; 10 μg/ml, 5 pg M13 phage DNA",84 ± 5
same,"Radioactive fraction, high-molecular","[3]; 10 μg/ml, 20 pg M13 phage DNA",20 ± 2/
same,"Radioactive fraction, low-molecular","[3]; 10 μg/ml, 20 pg M13 phage DNA",80 ± 5
same,"Radioactive fraction, high-molecular","[3]; 10 μg/ml, 50 pg M13 phage DNA",41 ± 32/
same,"Radioactive fraction, low-molecular","[3]; 10 μg/ml, 50 pg M13 phage DNA",59 ± 5
same,"Radioactive fraction, high-molecular","[3]; 10 μg/ml, 100 pg M13 phage DNA",72 ± 4.5/
same,"Radioactive fraction, low-molecular","[3]; 10 μg/ml, 100 pg M13 phage DNA",28 ± 2.5
same,"Radioactive fraction, high-molecular","[3]; 10 μg/ml, 200 pg M13 phage DNA",92 ± 7/
same,"Radioactive fraction, low-molecular","[3]; 10 μg/ml, 200 pg M13 phage DNA",8 ± 2
same,"Radioactive fraction, high-molecular","[3]; 50 μg/ml, 5 pg M13 phage DNA",32.5 ± 1.5*/
same,"Radioactive fraction, low-molecular","[3]; 50 μg/ml, 5 pg M13 phage DNA",67.5 ± 5.5
same,"Radioactive fraction, high-molecular","[3]; 50 μg/ml, 20 pg M13 phage DNA",37.5 ± 2.5*/
same,"Radioactive fraction, low-molecular","[3]; 50 μg/ml, 20 pg M13 phage DNA",62.5 ± 5.5
same,"Radioactive fraction, high-molecular","[3]; 50 μg/ml, 50 pg M13 phage DNA",59 ± 5*/
same,"Radioactive fraction, low-molecular","[3]; 50 μg/ml, 50 pg M13 phage DNA",41 ± 4
same,"Radioactive fraction, high-molecular","[3]; 50 μg/ml, 100 pg M13 phage DNA",80 ± 6/
same,"Radioactive fraction, low-molecular","[3]; 50 μg/ml, 100 pg M13 phage DNA",20 ± 3.5
same,"Radioactive fraction, high-molecular","[3]; 50 μg/ml, 200 pg M13 phage DNA",90.5 ± 6/
same,"Radioactive fraction, low-molecular","[3]; 50 μg/ml, 200 pg M13 phage DNA",9.5 ± 1.5
same,"Radioactive fraction, high-molecular","[3]; 100 μg/ml, 5 pg M13 phage DNA",42 ± 3*/
same,"Radioactive fraction, low-molecular","[3]; 100 μg/ml, 5 pg M13 phage DNA",58 ± 4
same,"Radioactive fraction, high-molecular","[3]; 100 μg/ml, 20 pg M13 phage DNA",49.5 ± 4*/
same,"Radioactive fraction, low-molecular","[3]; 100 μg/ml, 20 pg M13 phage DNA",50.5 ± 5
same,"Radioactive fraction, high-molecular","[3]; 100 μg/ml, 50 pg M13 phage DNA",67 ± 5*/
same,"Radioactive fraction, low-molecular","[3]; 100 μg/ml, 50 pg M13 phage DNA",33 ± 3.5
same,"Radioactive fraction, high-molecular",[3]; [9],84 ± 6.5/
same,"Radioactive fraction, low-molecular",[3]; [9],16 ± 1.5
same,"Radioactive fraction, high-molecular",[3]; [10],92.5 ± 8/
same,"Radioactive fraction, low-molecular",[3]; [10],7.5 ± 2
same,Relative inhibition of ATP-ase/helicase activity,[3]; [11],inhibits ATP-ase/helicase activity most of all
same,"Radioactive fraction, high-molecular","[4]; 10 μg/ml, 20 pg M13 phage DNA",16 ± 1/
same,"Radioactive fraction, low-molecular","[4]; 10 μg/ml, 20 pg M13 phage DNA",84 ± 5
same,"Radioactive fraction, high-molecular","[4]; 10 μg/ml, 50 pg M13 phage DNA",17.5 ± 1.5/
same,"Radioactive fraction, low-molecular","[4]; 10 μg/ml, 50 pg M13 phage DNA",82.5 ± 8.5
same,"Radioactive fraction, high-molecular","[4]; 10 μg/ml, 200 pg M13 phage DNA",45 ± 4/
same,"Radioactive fraction, low-molecular","[4]; 10 μg/ml, 200 pg M13 phage DNA",55 ± 5
same,"Radioactive fraction, high-molecular","[4]; 10 μg/ml, 500 pg M13 phage DNA",73.5 ± 5.5/
same,"Radioactive fraction, low-molecular","[4]; 10 μg/ml, 500 pg M13 phage DNA",27.5 ± 1.5
same,"Radioactive fraction, high-molecular","[4]; 10 μg/ml, 800 pg M13 phage DNA",92.0 ± 5/
same,"Radioactive fraction, low-molecular","[4]; 10 μg/ml, 800 pg M13 phage DNA",8 ± 1
same,"Radioactive fraction, high-molecular","[4]; 50 μg/ml, 20 pg M13 phage DNA",32 ± 2.5*/
same,"Radioactive fraction, low-molecular","[4]; 50 μg/ml, 20 pg M13 phage DNA",78 ± 7
same,"Radioactive fraction, high-molecular","[4]; 50 μg/ml, 50 pg M13 phage DNA",34 ± 3*/
same,"Radioactive fraction, low-molecular","[4]; 50 μg/ml, 50 pg M13 phage DNA",66 ± 7
same,"Radioactive fraction, high-molecular","[4]; 50 μg/ml, 200 pg M13 phage DNA",51 ± 4/
same,"Radioactive fraction, low-molecular","[4]; 50 μg/ml, 200 pg M13 phage DNA",49 ± 5
same,"Radioactive fraction, high-molecular","[4]; 50 μg/ml, 500 pg M13 phage DNA",74 ± 5/
same,"Radioactive fraction, low-molecular","[4]; 50 μg/ml, 500 pg M13 phage DNA",26 ± 2
same,"Radioactive fraction, high-molecular","[4]; 50 μg/ml, 800 pg M13 phage DNA",92.5 ± 6.5/
same,"Radioactive fraction, low-molecular","[4]; 50 μg/ml, 800 pg M13 phage DNA",7.5 ± 1
same,"Radioactive fraction, high-molecular","[4]; 100 μg/ml, 20 pg M13 phage DNA",36 ± 2*/
same,"Radioactive fraction, low-molecular","[4]; 100 μg/ml, 20 pg M13 phage DNA",64 ± 5
same,"Radioactive fraction, high-molecular","[4]; 100 μg/ml, 50 pg M13 phage DNA",41 ± 4*/
same,"Radioactive fraction, low-molecular","[4]; 100 μg/ml, 50 pg M13 phage DNA",59 ± 6
same,"Radioactive fraction, high-molecular",[4]; [10],57.5 ± 7.5*/
same,"Radioactive fraction, low-molecular",[4]; [10],42.5 ± 3.5
same,"Radioactive fraction, high-molecular",[4]; [12],75.5 ± 6.5/
same,"Radioactive fraction, low-molecular",[4]; [12],24.5 ± 3.5
same,"Radioactive fraction, high-molecular",[4]; [13],92.5 ± 6.5/
same,"Radioactive fraction, low-molecular",[4]; [13],7.5 ± 1
same,Relative inhibition of ATP-ase/helicase activity,[4]; [11],maximal inhibitory effect
"C[S+](CC[C@H](N)C(=O)[O-])C[C@H]1O[C@@H](n2cnc3c(N)ncnc32)[C@H](O)[C@@H]1O (some centres unmarked) [Heptral, S-adenosyl-methionine]",Rat weight,[5]; 1 treatment week,191.0 g
same,Rat weight,[5]; 3 treatment weeks,212 g
same,Relative square of the connective tissue in a liver section,[5]; 3 weeks after cirrhosis modeling completion,8.215 ± 0.751%
same,Collagen amount lowered comparing to the normal saline control (times),[5]; 6-week dosing,1.7 times
same,Rat weight,[5]; 6 treatment weeks,232 g
same,Relative square of the connective tissue in a liver section,[5]; 6 weeks after cirrhosis modeling completion,7.781 ± 0.943 %
same,Decrease of liver fibrosis-formation rate,[5]; comparison agent,35%
same,Collagen amount lowered comparing to the normal saline control (times),[5]; treatment for 3 weeks,1.1 times
Nc1ccn([C@H]2CC[C@@H](CO)O2)c(=O)n1 [Hivid],ALT in Chronic HCV Infection,[6]; Baseline (before treatment),187.5 ± 48.4 U/L
same,ALT in Chronic HCV Infection,[6]; month 1 (after treatment),**190 ± 71.1 U/L
same,ALT in Chronic HCV Infection,[6]; [7],**153 ± 25.3 U/L
same,ALT in Chronic HCV Infection,[6]; [8],**151 ± 25.2 U/L
